The results in this text go back to paper PMC9501633, “Synthesis, Characterisation and Mechanism of Action of Anticancer 3-Fluoroazetidin-2-ones” (Pharmaceuticals, 2022).

For one assay, the system named is MDA-MB-231 cells. The assay can be described thus: AlamarBlue cell viability assay. Format: cell-based. Particulars: Homo sapiens, MDA-MB-231, 72 h. The method, then:
The potent 3-fluoro-β-lactam compound 33 synthesised was also evaluated in the triple-negative MDA-MB-231 cell line which lacks expression of the estrogen and progesterone receptors (ER/PR) and the HER2 receptor. […]. Compound 32 was also evaluated in the triple-negative breast cancer cell line Hs578T and its isogenic subclone Hs578T(i)8 (Figure 4C). Hs578Ts(i)8 cells have 2.5-fold more migratory capacity and 3-fold more invasive capacity through the extracellular matrix than the parental cell line (Hs578T) and have 30% more CD44+/CD24-/low cells and in vivo proliferation. […]. […] Cell proliferation for MCF-7 cells was analysed with the AlamarBlue assay (Invitrogen Corp.) as previously described by us. […] Fluorescence results were obtained with a 96-well fluorimeter with excitation at 530 nm and emission at 590 nm with results recorded as percentage viability relative to vehicle control (100%). […]
Figure 4 Antiproliferative activity of 3-fluoro β-lactams on MCF-7, MDA-MB-231, Hs578T and Hs578T isogenic subclone Hs578T(i)8 breast cancer cells and non-tumourigenic HEK-293T cells. […] Cell viability was expressed as a percentage of vehicle control (ethanol 1% (v/v))-treated cells. […] Cell viability was expressed as a percentage of vehicle control (ethanol 1% (v/v))-treated cells and was measured by AlamarBlue assay (average of three independent experiments). […]
In general terms: Alamar Blue is a resazurin reagent that responds to reducing activity.

For a further assay, the system named is MCF-7 cells. The assay can be described thus: Immunofluorescence confocal microscopy of the microtubule network. Format: cell-based, human. The note with it: MCF-7, 16 h; 33 0.1, 0.5 and 1.0 μM; paclitaxel 1.0 μM; CA-4 0.01 μM. The method, then:
The tubulin-targeting effect of compound 33 on the microtubule network of MCF-7 cells was further evaluated by immunofluorescence studies to identify the cellular effects that are relevant to its mechanism of action by inhibiting the polymerisation of tubulin. […] Treatment of MCF-7 cells with compound 33 (0.1, 0.5 and 1.0 μM) induced cell rounding and distinct abnormalities of the spindle formation as well as a loss of the structured tubulin that impacts the microtubule network structure in a dose-dependent manner.
Confocal microscopy was used to determine the effects of novel compound 33 and standard drugs on the MCF-7 cytoskeleton according to the protocols we previously described. For the immunofluorescence study, MCF-7 cells were seeded at 1 × 10^5 cells/mL using eight chamber glass slides (BD Biosciences). The cells were treated with vehicle control (1% ethanol (v/v)), CA-4 (0.01 μM), paclitaxel (1 µM) and 33 (0.1 µM, 0.5 µM and 1 µM) for 16 h. The cells were gently washed in PBS, fixed with 4% paraformaldehyde in PBS (20 min) and permeabilised in 0.5% Triton X-100. After further washes in PBS (containing 0.1% Tween (PBST)), cells were blocked with 5% bovine serum albumin which was diluted with PBST. Cells were incubated with mouse monoclonal anti-α-tubulin–FITC antibody (clone DM1A) (Sigma) (1:100) at 20 °C for 2 h and then washed in PBST and incubated with Alexa Fluor 488 dye (1:500) for 1 h at 20 °C. Cells were washed in PBST and mounted in Ultra Cruz Mounting Media (Santa Cruz Biotechnology, Santa Cruz, CA, USA) containing 4,6-diamino-2-phenolindol dihydrochloride (DAPI). The images were captured by Leica SP8 confocal microscopy with Leica Application Suite X software. Experiments were performed on three independent occasions and images were collected on the same day using identical parameters.
Figure 8 Compound 33 acts as depolymeriser of the microtubule network of MCF-7 breast cancer cells. Cells were treated with vehicle control ([…]), CA-4 (0.01 μM), paclitaxel (1 μM) or compound 33 (0.1, 0.5 and 1 μM) for 16 h. […]

In another assay the test system is SW-480 cells. The assay can be described thus: AlamarBlue cell viability assay. Format: cell-based. Here is the method: Compound # (Treatment Concentration µM) […]
different para-substituent ring B 26-29; 3-fluoro β-lactam compounds containing different meta-substituent ring B 30, 33-35; (B) 3,3-difluoro β-lactam compounds containing different para-substituent ring B 36-39; 3,3-difluoro β-lactam compounds containing different meta-substituent […]
ring B 40, 42-45 in SW-480 cancer cells.
Cell proliferation of MCF-7 cells was determined with an alamarBlue assay (seeding density […]
Compound concentrations of either 10 μM or 1 μM for 72 h were used to treat the cells with control wells containing vehicle ethanol (1%

The subject of another assay is SW-620. The assay can be described thus: NCI 60 cell line screen, Colon. Format: cell-based, human. Particulars: for inhibition at 10 µM / Growth %: one dose 10 µM.
A further assay has as its system MDA-MB-231/ATCC. The experiment in a line: NCI 60 cell line screen, Breast. Format: cell-based, human. The note with it: for inhibition at 10 µM / Growth %: one dose 10 µM.
In a further assay the test system is COLO 205. The experiment in a line: NCI 60 cell line screen, Colon. Format: cell-based, human. The note with it: for inhibition at 10 µM / Growth %: one dose 10 µM.
The subject of a further assay is UACC-62. The experiment in a line: NCI 60 cell line screen, Melanoma. The note with it: for inhibition at 10 µM: Homo sapiens; for inhibition at 10 µM / Growth %: one dose 10 µM. Format: cell-based, human.
In the next assay the test system is HOP-62. The assay can be described thus: NCI 60 cell line screen, NSCLung. The note with it: for inhibition at 10 µM / Growth %: one dose 10 µM. Format: cell-based, human.

Consider `COc1ccc(/C=C\c2cc(OC)c(OC)c(OC)c2)cc1O` [CA-4, combretastatin A-4, reference compound], for which the IC50 (in general, the midpoint of a concentration-inhibition curve) amounted to 43 nM in the assay with MDA-MB-231 cells and 6.3 ± 0.6 nM in the assay with SW-480 cells (Homo sapiens, SW480 cells). The “effect on the microtubule network” value in the assay with MCF-7 cells is “depolymerisation and destabilisation”.

Molecule `COc1ccc(C2C(F)C(=O)N2c2cc(OC)c(OC)c(OC)c2)cc1F` (stereo not shown) [Compound 33, 3-Fluoro-4-(3-fluoro-4-methoxyphenyl)-1-(3,4,5-trimethoxyphenyl)azetidin-2-one] registered an IC50 in the assay with MDA-MB-231 cells of 620 nM. Moreover, the “effect on the microtubule network” value in the assay on MCF-7 cells is “destabilising microtubules”. For the same molecule, the TGI (in general, the concentration at which net growth stops) in the assay on SW-620 (5-dose, 48 h) is over 100 µM; in the assay with MDA-MB-231/ATCC (5-dose, 48 h) it was over 100 µM; in the assay with COLO 205 (5-dose, 48 h), 0.503 µM; in the assay with UACC-62 (5-dose, 48 h), over 100 µM; with HOP-62 (5-dose, 48 h) it was over 100 µM. For the same molecule, the GI50 (in general, the concentration at which growth is held to half of that of the control) is 56.2 nM in the assay with SW-620 (Homo sapiens, 5-dose, 48 h); 355 nM with MDA-MB-231/ATCC (Homo sapiens, 5-dose, 48 h); 156 nM in the assay with COLO 205 (Homo sapiens, 5-dose, 48 h); 511 nM in the assay with HOP-62 (Homo sapiens, 5-dose, 48 h). Further, the inhibition (commonly the relative decrease from the control value, in per cent) at 10 µM with SW-620 (Homo sapiens) stood at 71.3%; in the assay on MDA-MB-231/ATCC (Homo sapiens) it was 80.3%; in the assay with COLO 205 (Homo sapiens) it was 168%; with UACC-62 it was 46.5%; in the assay with HOP-62 (Homo sapiens), 68.2%. Further, the Growth % is given as 28.73% with SW-620; 19.65% with MDA-MB-231/ATCC; -68% with COLO 205; 53.45% in the assay on UACC-62; 31.85% with HOP-62. Moreover, in the assay on COLO 205 (Homo sapiens, 5-dose, 48 h, read-out: LC50 (the source's name)), the CC50 was found to be 8.23 µM. The cells remaining in the assay on SW-480 cells (SW-480, 10 μM, 72 h) is given as 62%.

As for `CCOc1ccc(C2N(c3cc(OC)c(OC)c(OC)c3)C(=O)C2(F)F)cc1` (stereo not shown) [Compound 37, 4-(4-Ethoxyphenyl)-3,3-difluoro-1-(3,4,5-trimethoxyphenyl)azetidin-2-one], the inhibition at 10 µM with SW-620 (Homo sapiens) turned out to be 74.5%; in the assay on MDA-MB-231/ATCC (Homo sapiens) it was 53.9%; in the assay with COLO 205 (Homo sapiens), 89.2%; in the assay on UACC-62, 48.4%; with HOP-62 (Homo sapiens), 59.2%. The Growth % with SW-620 is recorded as 25.47%; in the assay on MDA-MB-231/ATCC, 46.12%; with COLO 205 it was 10.78%; in the assay with UACC-62, 51.61%; with HOP-62 it was 40.81%.

For `COc1ccc(C2N(c3cc(OC)c(OC)c(OC)c3)C(=O)C2(F)F)cc1F` (stereo not shown) [Compound 43, 3,3-Difluoro-4-(3-fluoro-4-methoxyphenyl)-1-(3,4,5-trimethoxyphenyl)azetidin-2-one], the inhibition at 10 µM in the assay with SW-620 (Homo sapiens) is 78.8%; with MDA-MB-231/ATCC (Homo sapiens) it was 46%; in the assay with COLO 205 (Homo sapiens) it was 83.7%; in the assay on UACC-62 it was 44.5%; in the assay with HOP-62 (Homo sapiens), 61.6%. For the same molecule, the Growth % turned out to be 21.22% in the assay with SW-620; 54.02% with MDA-MB-231/ATCC; 16.32% in the assay with COLO 205; 55.46% in the assay on UACC-62; 38.43% with HOP-62.
